Measurements from paper PMC8489181 (Clinical cancer research : an official journal of the …, 2020).

Key:
[1] = test system: postmenopausal women with HR+, HER2− advanced breast cancer; test: Safety and tolerability; assay type: in vivo, human
[2] = test system: postmenopausal women with ER+, HER2− ABC; test: Dose-limiting toxicities in cycle 1; assay type: in vivo
[3] = Everolimus whole blood pharmacokinetics; assay type: in vivo, human; settings: for AUC(0-t): AUC0–24h at steady state; for AUC(0-t) / Cmax: everolimus 2.5 mg; for Cmax: geometric mean Cmax at steady state
[4] = ribociclib CYP3A4 inhibitor, everolimus CYP3A4 substrate; cited from earlier work
[5] = Ribociclib plasma pharmacokinetics; assay type: in vivo, human; settings: for AUC(0-t): geometric mean AUC0–24h at steady state; for half-life: geometric mean effective half-life based on drug accumulation
[6] = dose-escalation group 1 (fasting)
[7] = female, human, whole blood, oral, dose-escalation group 1
[8] = female, human, whole blood, oral, dose-escalation group 2
[9] = taken with food, ribociclib 3 weeks on/1 week off in a 4-week cycle
[10] = female, human, plasma, oral, dose-escalation group 1
[11] = female, human, plasma, oral, dose-escalation group 2
[12] = dose-expansion group 1 (CDK4/6i-naïve)
[13] = dose-expansion group 2 (CDK4/6i-refractory)

SMILES: C=C1C[C@@H]2[C@H](CC[C@]3(C)C(=O)CC[C@@H]23)[C@@]2(C)C=CC(=O)C=C12 [exemestane]
- patients requiring ≥1 dose interruption [1, 6]: 61%
- patients requiring ≥1 dose interruption ([1]; dose-escalation group 2 (fed)): 71.4%
- recommended phase II dose (RP2D) in the triplet ([2]; female, human, in vivo, 28 days): 25 mg once daily

SMILES: CO[C@H]1C[C@@H]2CC[C@@H](C)[C@@](O)(O2)C(=O)C(=O)N2CCCC[C@H]2C(=O)O[C@H]([C@H](C)C[C@@H]2CC[C@@H](OCCO)[C@H](OC)C2)CC(=O)[C@H](C)/C=C(\C)[C@@H](O)[C@@H](OC)C(=O)[C@H](C)C[C@H](C)/C=C/C=C/C=C/1C [everolimus]
- patients requiring ≥1 dose interruption [1, 6]: 70.7%
- patients requiring ≥1 dose reduction [1, 6]: 2.4%
- patients requiring ≥1 dose interruption ([1]; dose-escalation group 2 (fed)): 83.3%
- patients requiring ≥1 dose reduction ([1]; dose-escalation group 2 (fed)): 4.8%
- dose reductions ([1]; dose-expansion phase): no dose reductions
- AUC0–24h ([3]; at the RP2D): 303 ng·h/mL
- everolimus exposure increase in the presence of ribociclib (dose-dependent DDI) ([3]; dose-escalation phase): two- to fourfold
- Tmax ([3]; female, human, whole blood, oral): 1 to 2 h
- AUC(0-t) [3, 7]: 166 to 307 ng·h/mL
- AUC(0-t) [3, 8]: 117 to 316 ng·h/mL
- Cmax [3, 7]: 19.7 to 30.3 ng/mL
- Cmax [3, 8]: 8.25 to 29.4 ng/mL
- expected increase of everolimus exposure by treatment with ribociclib [4]: approximately 3.5 fold
- recommended phase II dose (RP2D) in the triplet [2, 9]: 2.5 mg once daily

SMILES: CN(C)C(=O)c1cc2cnc(Nc3ccc(N4CCNCC4)cn3)nc2n1C1CCCC1 [ribociclib]
- Tmax ([5]; female, human, plasma, oral): 1 to 4 h
- Cmax ([5]; female, human, plasma, oral, Cmax at steady state, at the RP2D): 773 ng/mL
- AUC(0-t) [5, 10]: 4570 to 11100 ng·h/mL
- AUC(0-t) [5, 11]: 3970 to 13400 ng·h/mL
- Cmax ([5]; female, human, plasma, oral, geometric mean Cmax at steady state, dose-escalation group 1, 200–350 mg dose): 413 to 1000 ng/mL
- Cmax ([5]; female, human, plasma, oral, geometric mean Cmax at steady state, dose-escalation group 2): 289 to 955 ng/mL
- half-life [5, 10]: 24.9 to 47.6 h
- half-life [5, 11]: 29.5 to 49.9 h
- mean steady-state exposure in the presence of food ([5]; same dose level, fed versus fasted): slightly lower
- DDI in the presence of everolimus and exemestane ([5]; triplet combination, versus single-agent ribociclib exposure): No DDIs were observed
- patients requiring ≥1 dose interruption [1, 6]: 68.3%
- patients requiring ≥1 dose reduction [1, 6]: 22.0%
- patients requiring ≥1 dose interruption ([1]; dose-escalation group 2 (fed)): 80.9%
- patients requiring ≥1 dose reduction ([1]; dose-escalation group 2 (fed)): 33.3%
- patients requiring ≥1 dose interruption [1, 12]: 87.5%
- patients requiring ≥1 dose reduction [1, 12]: 43.8%
- patients requiring ≥1 dose interruption [1, 13]: 82.4%
- patients requiring ≥1 dose reduction [1, 13]: 23.5%
- recommended phase II dose (RP2D) in the triplet [2, 9]: 300 mg once daily
